From ChEMBL document CHEMBL4400519, “Indazolylketones as new multitarget cannabinoid drugs” (Eur J Med Chem, 2019)
The source made the active and inactive calls. No cut-off for these calls is given here.

What was measured:
[1] = Antioxidant activity assessed as trolox equivalent of APPH-induced radical scavenging activity by ORAC-FL assay; assay type: functional
[2] = biological target: T1, Cannabinoid receptor (Mus musculus) (UniProt P47746+P47936); experiment: Agonist activity at cannabinoid receptor in ICR mouse vas deferens assessed as inhibition of electrically induced contractions at 8.1 x 10^-6 M after 10 mins in presence of CB2 antagonist AM630 relative to control; assay type: protein assay
T1 sequence (P47746 whole entry, looked up): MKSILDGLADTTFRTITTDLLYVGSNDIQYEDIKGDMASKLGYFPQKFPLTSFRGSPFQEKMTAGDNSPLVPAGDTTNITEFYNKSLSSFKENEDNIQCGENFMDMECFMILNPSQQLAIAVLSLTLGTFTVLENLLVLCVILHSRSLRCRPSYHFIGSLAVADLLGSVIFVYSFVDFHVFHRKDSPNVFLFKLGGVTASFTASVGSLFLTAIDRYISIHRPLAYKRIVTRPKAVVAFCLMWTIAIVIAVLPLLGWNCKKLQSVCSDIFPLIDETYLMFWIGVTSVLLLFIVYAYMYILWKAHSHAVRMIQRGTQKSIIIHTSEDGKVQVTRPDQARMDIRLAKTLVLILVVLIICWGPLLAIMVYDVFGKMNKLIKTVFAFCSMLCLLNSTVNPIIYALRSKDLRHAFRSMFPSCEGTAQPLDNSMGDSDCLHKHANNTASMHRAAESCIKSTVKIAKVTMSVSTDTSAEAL
T1 sequence (P47936 whole entry, looked up): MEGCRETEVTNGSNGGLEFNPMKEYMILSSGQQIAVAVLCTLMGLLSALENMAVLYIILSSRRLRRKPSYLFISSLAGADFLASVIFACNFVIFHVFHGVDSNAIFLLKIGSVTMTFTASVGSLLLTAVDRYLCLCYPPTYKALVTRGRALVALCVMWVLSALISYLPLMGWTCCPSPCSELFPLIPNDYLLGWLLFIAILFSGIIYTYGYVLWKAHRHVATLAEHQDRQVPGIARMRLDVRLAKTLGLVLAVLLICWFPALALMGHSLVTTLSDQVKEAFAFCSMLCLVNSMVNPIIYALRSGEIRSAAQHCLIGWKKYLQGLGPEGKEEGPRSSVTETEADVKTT

Homo sapiens [3] = organism: Homo sapiens; experiment: Antiproliferative activity against Alzheimer's patient derived lymphoblast cells at 5 uM after 72 hrs by MTT assay; assay type: functional
[4] = biological target: T1, Cannabinoid receptor (Mus musculus); experiment: Agonist activity at cannabinoid receptor in ICR mouse vas deferens assessed as inhibition of electrically induced contractions at 2.7 x 10^-6 M after 10 mins in presence of CB1 antagonist AM251 relative to control; assay type: protein assay
[5] = biological target: T1, Cannabinoid receptor (Mus musculus); experiment: Agonist activity at cannabinoid receptor in ICR mouse vas deferens assessed as inhibition of electrically induced contractions at 8.1 x 10^-6 M after 10 mins in presence of CB1 antagonist AM251 relative to control; assay type: protein assay
[6] = biological target: Beta-secretase 1 (Homo sapiens) (UniProt P56817); experiment: Inhibition of human BACE1 at 10 uM incubated for 60 mins using rhodamine-EVNLDAEFK-quencher substrate by FRET assay
Sequence of Beta-secretase 1 (Homo sapiens) (P56817 whole entry): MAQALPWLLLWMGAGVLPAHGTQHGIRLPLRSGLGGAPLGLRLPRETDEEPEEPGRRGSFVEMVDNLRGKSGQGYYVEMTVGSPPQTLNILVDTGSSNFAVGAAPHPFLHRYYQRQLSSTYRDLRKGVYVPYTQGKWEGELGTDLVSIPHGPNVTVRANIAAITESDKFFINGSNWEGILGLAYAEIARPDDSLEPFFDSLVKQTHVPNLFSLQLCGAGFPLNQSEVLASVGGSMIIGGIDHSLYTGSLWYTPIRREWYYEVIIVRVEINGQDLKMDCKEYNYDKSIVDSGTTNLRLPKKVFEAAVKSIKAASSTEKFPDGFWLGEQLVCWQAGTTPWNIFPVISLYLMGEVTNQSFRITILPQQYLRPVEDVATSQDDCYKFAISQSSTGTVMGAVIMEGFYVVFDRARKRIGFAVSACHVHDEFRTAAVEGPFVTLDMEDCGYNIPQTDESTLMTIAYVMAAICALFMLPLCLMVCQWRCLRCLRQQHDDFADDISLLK

[7] = biological target: T1, Cannabinoid receptor (Mus musculus); experiment: Agonist activity at cannabinoid receptor in ICR mouse vas deferens assessed as inhibition of electrically induced contractions at 10^-7 M after 10 mins relative to control; assay type: protein assay
Homo sapiens [8] = organism: Homo sapiens; experiment: Antiproliferative activity against Alzheimer's patient derived lymphoblast cells at 5 uM in presence of CB2 antagonist AM630 after 72 hrs by MTT assay; assay type: functional
[9] = biological target: T1, Cannabinoid receptor (Mus musculus); experiment: Agonist activity at cannabinoid receptor in ICR mouse vas deferens assessed as inhibition of electrically induced contractions at 1.82 x 10^-5 M after 10 mins in presence of CB2 antagonist AM630 relative to control; assay type: protein assay
[10] = biological target: T1, Cannabinoid receptor (Mus musculus); experiment: Agonist activity at cannabinoid receptor in ICR mouse vas deferens assessed as inhibition of electrically induced contractions at 9 x 10^-7 M after 10 mins relative to control; assay type: protein assay
[11] = biological target: T1, Cannabinoid receptor (Mus musculus); experiment: Agonist activity at cannabinoid receptor in ICR mouse vas deferens assessed as inhibition of electrically induced contractions at 1.82 x 10^-5 M after 10 mins in presence of CB1 antagonist AM251 relative to control; assay type: protein assay
[12] = biological target: T1, Cannabinoid receptor (Mus musculus); experiment: Agonist activity at cannabinoid receptor in ICR mouse vas deferens assessed as inhibition of electrically induced contractions at 9 x 10^-7 M after 10 mins in presence of CB1 antagonist AM251 relative to control; assay type: protein assay
[13] = biological target: T1, Cannabinoid receptor (Mus musculus); experiment: Agonist activity at cannabinoid receptor in ICR mouse vas deferens assessed as inhibition of electrically induced contractions at 10^-7 M after 10 mins in presence of CB1 antagonist AM251 relative to control; assay type: protein assay
[14] = Antiproliferative activity against normal human derived lymphoblast cells at 5 uM after 72 hrs by MTT assay
[15] = biological target: T1, Cannabinoid receptor (Mus musculus); experiment: Agonist activity at cannabinoid receptor in ICR mouse vas deferens assessed as inhibition of electrically induced contractions at 1.82 x 10^-5 M after 10 mins relative to control; assay type: protein assay
[16] = biological target: T1, Cannabinoid receptor (Mus musculus); experiment: Agonist activity at cannabinoid receptor in ICR mouse vas deferens assessed as inhibition of electrically induced contractions at 3 x 10^-7 M after 10 mins relative to control; assay type: protein assay
Cholinesterase [17] = biological target: T2, Cholinesterase (Homo sapiens, UniProt P06276); experiment: Inhibition of human serum BChE using butyrylthiocholine as substrate by Ellman's assay
T2 sequence (P06276 whole entry): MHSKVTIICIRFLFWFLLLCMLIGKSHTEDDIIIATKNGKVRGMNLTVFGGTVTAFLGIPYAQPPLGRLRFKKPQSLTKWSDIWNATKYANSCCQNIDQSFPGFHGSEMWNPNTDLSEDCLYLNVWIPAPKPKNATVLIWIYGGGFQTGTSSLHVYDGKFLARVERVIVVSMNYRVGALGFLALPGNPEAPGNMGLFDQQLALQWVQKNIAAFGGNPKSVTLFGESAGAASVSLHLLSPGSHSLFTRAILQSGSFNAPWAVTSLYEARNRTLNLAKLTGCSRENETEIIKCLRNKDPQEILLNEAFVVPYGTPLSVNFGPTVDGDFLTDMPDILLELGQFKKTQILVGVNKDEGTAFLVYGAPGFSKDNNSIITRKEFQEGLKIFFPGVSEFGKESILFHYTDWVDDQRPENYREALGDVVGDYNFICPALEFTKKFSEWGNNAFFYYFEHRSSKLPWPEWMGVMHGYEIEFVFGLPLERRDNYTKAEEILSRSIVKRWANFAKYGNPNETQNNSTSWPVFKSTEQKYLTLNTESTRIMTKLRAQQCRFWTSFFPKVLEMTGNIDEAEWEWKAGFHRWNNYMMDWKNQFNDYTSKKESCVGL

Acetylcholinesterase [18] = biological target: T3, Acetylcholinesterase (Homo sapiens, UniProt P22303); experiment: Inhibition of human erythrocyte AChE using acetylthiocholine as substrate by Ellman's assay
T3 sequence (P22303 whole entry): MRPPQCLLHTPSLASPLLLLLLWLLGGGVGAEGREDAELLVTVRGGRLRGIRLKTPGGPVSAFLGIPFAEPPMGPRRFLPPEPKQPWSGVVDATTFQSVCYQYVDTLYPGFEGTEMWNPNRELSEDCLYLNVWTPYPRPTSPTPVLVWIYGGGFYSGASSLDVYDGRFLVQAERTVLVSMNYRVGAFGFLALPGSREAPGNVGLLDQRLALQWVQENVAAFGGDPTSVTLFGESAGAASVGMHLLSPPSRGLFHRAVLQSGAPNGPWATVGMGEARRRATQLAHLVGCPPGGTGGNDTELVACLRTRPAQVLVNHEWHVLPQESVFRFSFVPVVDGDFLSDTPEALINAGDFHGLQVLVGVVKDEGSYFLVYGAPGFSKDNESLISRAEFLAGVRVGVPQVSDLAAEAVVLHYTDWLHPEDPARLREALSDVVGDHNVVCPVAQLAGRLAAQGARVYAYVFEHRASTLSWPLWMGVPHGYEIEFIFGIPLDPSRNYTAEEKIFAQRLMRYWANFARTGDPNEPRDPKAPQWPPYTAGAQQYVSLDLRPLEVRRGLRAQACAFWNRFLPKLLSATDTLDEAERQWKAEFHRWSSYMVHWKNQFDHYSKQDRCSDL

[19] = biological target: T1, Cannabinoid receptor (Mus musculus); experiment: Agonist activity at cannabinoid receptor in ICR mouse vas deferens assessed as inhibition of electrically induced contractions at 3 x 10^-7 M after 10 mins in presence of CB1 antagonist AM251 relative to control; assay type: protein assay
SH-SY5Y [20] = experiment: Neuroprotective activity against amyloid beta-induced neurodegeneration in human SH-SY5Y cells at 10 uM preincubated for 1 hr followed by amyloid beta addition and measured after 24 hrs CB2 antagonist AM630 by MTT assay; assay type: functional, cell-based
[21] = biological target: T1, Cannabinoid receptor (Mus musculus); experiment: Agonist activity at cannabinoid receptor in ICR mouse vas deferens assessed as inhibition of electrically induced contractions at 2.7 x 10^-6 M after 10 mins relative to control; assay type: protein assay
SH-SY5Y [22] = experiment: Neuroprotective activity against amyloid beta-induced neurodegeneration in human SH-SY5Y cells at 10 uM preincubated for 1 hr followed by amyloid beta addition and measured after 24 hrs by MTT assay; assay type: functional, cell-based
[23] = biological target: T1, Cannabinoid receptor (Mus musculus); experiment: Agonist activity at cannabinoid receptor in ICR mouse vas deferens assessed as inhibition of electrically induced contractions at 8.1 x 10^-6 M after 10 mins relative to control; assay type: protein assay
Cholinesterase [24] = biological target: T2, Cholinesterase; experiment: Inhibition of human serum BChE at 10 uM using butyrylthiocholine as substrate by Ellman's assay
SH-SY5Y [25] = experiment: Neuroprotective activity against amyloid beta-induced neurodegeneration in human SH-SY5Y cells at 20 uM preincubated for 1 hr followed by amyloid beta addition and measured after 24 hrs by MTT assay; assay type: functional, cell-based
[26] = biological target: T1, Cannabinoid receptor (Mus musculus); experiment: Agonist activity at cannabinoid receptor in ICR mouse vas deferens assessed as inhibition of electrically induced contractions at 10^-7 M after 10 mins in presence of CB2 antagonist AM630 relative to control; assay type: protein assay
[27] = biological target: T1, Cannabinoid receptor (Mus musculus); experiment: Agonist activity at cannabinoid receptor in ICR mouse vas deferens assessed as inhibition of electrically induced contractions at 2.7 x 10^-6 M after 10 mins in presence of CB2 antagonist AM630 relative to control; assay type: protein assay
[28] = biological target: T1, Cannabinoid receptor (Mus musculus); experiment: Agonist activity at cannabinoid receptor in ICR mouse vas deferens assessed as inhibition of electrically induced contractions at 3 x 10^-7 M after 10 mins in presence of CB2 antagonist AM630 relative to control; assay type: protein assay
[29] = biological target: T1, Cannabinoid receptor (Mus musculus); experiment: Agonist activity at cannabinoid receptor in ICR mouse vas deferens assessed as inhibition of electrically induced contractions at 9 x 10^-7 M after 10 mins in presence of CB2 antagonist AM630 relative to control; assay type: protein assay
SH-SY5Y [30] = experiment: Neuroprotective activity against amyloid beta-induced neurodegeneration in human SH-SY5Y cells at 20 uM preincubated for 1 hr followed by amyloid beta addition and measured after 24 hrs in presence of CB2 antagonist AM630 by MTT assay; assay type: functional, cell-based
Acetylcholinesterase [31] = biological target: T3, Acetylcholinesterase; experiment: Inhibition of human erythrocyte AChE at 10 uM using acetylthiocholine as substrate by Ellman's assay
Cholinesterase [32] = biological target: T2, Cholinesterase; experiment: Non-competitive inhibition of human serum BChE using butyrylthiocholine as substrate by Lineweaver-Burk plot analysis
[33] = biological target: T1, Cannabinoid receptor (Mus musculus); experiment: Agonist activity at cannabinoid receptor in ICR mouse vas deferens assessed as inhibition of electrically induced contractions at 8.1 x 10^-6 M after 10 mins in presence of CB1 antagonist AM251 and CB2 antagonist AM630 relative to control; assay type: protein assay
[34] = biological target: T1, Cannabinoid receptor (Mus musculus); experiment: Agonist activity at cannabinoid receptor in ICR mouse vas deferens assessed as inhibition of electrically induced contractions at 2.7 x 10^-6 M after 10 mins in presence of CB1 antagonist AM251 and CB2 antagonist AM630 relative to control; assay type: protein assay
[35] = biological target: T1, Cannabinoid receptor (Mus musculus); experiment: Agonist activity at cannabinoid receptor in ICR mouse vas deferens assessed as inhibition of electrically induced contractions at 3 x 10^-7 M after 10 mins in presence of CB1 antagonist AM251 and CB2 antagonist AM630 relative to control; assay type: protein assay
[36] = biological target: T1, Cannabinoid receptor (Mus musculus); experiment: Agonist activity at cannabinoid receptor in ICR mouse vas deferens assessed as inhibition of electrically induced contractions at 10^-7 M after 10 mins in presence of CB1 antagonist AM251 and CB2 antagonist AM630 relative to control; assay type: protein assay
[37] = biological target: T1, Cannabinoid receptor (Mus musculus); experiment: Agonist activity at cannabinoid receptor in ICR mouse vas deferens assessed as inhibition of electrically induced contractions at 1.82 x 10^-5 M after 10 mins in presence of CB1 antagonist AM251 and CB2 antagonist AM630 relative to control; assay type: protein assay
[38] = biological target: T1, Cannabinoid receptor (Mus musculus); experiment: Agonist activity at cannabinoid receptor in ICR mouse vas deferens assessed as inhibition of electrically induced contractions at 9 x 10^-7 M after 10 mins in presence of CB1 antagonist AM251 and CB2 antagonist AM630 relative to control; assay type: protein assay

| SMILES | Activity [1] | inhibition [2] [%] | Activity (Homo sapiens [3]) | inhibition [4] [%] | inhibition [5] [%] | inhibition [6] [%] | inhibition [7] [%] | Activity (Homo sapiens [8]) | inhibition [9] [%] | inhibition [10] [%] | inhibition [11] [%] | inhibition [13] [%] | Activity [14] | inhibition [15] [%] | inhibition [16] [%] | IC50 (Cholinesterase [17]) [µM] | IC50 (Acetylcholinesterase [18]) [µM] | inhibition [21] [%] | Activity (SH-SY5Y [22]) | inhibition [23] [%] | further results |
| --- | --- | --- | --- | --- | --- | --- | --- | --- | --- | --- | --- | --- | --- | --- | --- | --- | --- | --- | --- | --- | --- |
| Cc1cc(C)c(C(=O)n2nc(OCCN3CCCCC3)c3ccccc32)c(C)c1 | inactive | -4.7 | Active | 8.7 | 19.8 | 12 | 2.6 | inactive | 1.3 | 6.5 | 40.7 | -0.4 | Non-Toxic | 56.8 | 3.6 | 0.29 | 11.6 | 14 | Active | 30.7 | inhibition [12]: 7.6%; inhibition [19]: 1.4%; Activity (SH-SY5Y [20]): inactive |
| COc1ccc(CC(=O)n2nc(OCCCN3CCCCC3)c3ccccc32)cc1 | inactive | 68.5 | Active | -1.6 | 61.9 | 60 | -2.4 | inactive | 94.3 | 16.9 | 89.7 | -9.4 | Non-Toxic | 96 | -0.3 | > 10 | > 10 | 42.5 | – | 88.5 | inhibition (Cholinesterase [24]): 42%; Activity (SH-SY5Y [25]): Active; inhibition [26]: -9.2%; inhibition [27]: 14.7%; inhibition [28]: -9.4%; inhibition [29]: -1.4%; Activity (SH-SY5Y [30]): inactive; inhibition (Acetylcholinesterase [31]): 43% |
| COc1ccc(COc2nn(CCN(C(C)C)C(C)C)c3ccccc23)cc1 | – | – | Active | – | – | 9 | 7.5 | inactive | – | 18.6 | – | – | Non-Toxic | 86.4 | 8.5 | – | > 10 | 43.1 | Active | 74.7 | inhibition (Cholinesterase [32]): Active; inhibition [33]: 60%; Activity (SH-SY5Y [25]): Active; inhibition [34]: 20.3%; inhibition [35]: 8.2%; inhibition [36]: 1.3%; inhibition [37]: 84%; inhibition [38]: 12%; inhibition (Acetylcholinesterase [31]): 24% |
